Measured values as given in ChEMBL document CHEMBL2073793, “An in vitro evaluation of human cytochrome P450 3A4 and P-glycoprotein inhibition by garlic” (J Pharm Pharm Sci, 2001).

Molecular target: ATP-dependent translocase ABCB1 (Homo sapiens, UniProt P08183)
Assay: TP_TRANSPORTER: ATP hydrolysis GENTEST
Assay type: functional

ATP-dependent translocase ABCB1, sequence (P08183 whole entry): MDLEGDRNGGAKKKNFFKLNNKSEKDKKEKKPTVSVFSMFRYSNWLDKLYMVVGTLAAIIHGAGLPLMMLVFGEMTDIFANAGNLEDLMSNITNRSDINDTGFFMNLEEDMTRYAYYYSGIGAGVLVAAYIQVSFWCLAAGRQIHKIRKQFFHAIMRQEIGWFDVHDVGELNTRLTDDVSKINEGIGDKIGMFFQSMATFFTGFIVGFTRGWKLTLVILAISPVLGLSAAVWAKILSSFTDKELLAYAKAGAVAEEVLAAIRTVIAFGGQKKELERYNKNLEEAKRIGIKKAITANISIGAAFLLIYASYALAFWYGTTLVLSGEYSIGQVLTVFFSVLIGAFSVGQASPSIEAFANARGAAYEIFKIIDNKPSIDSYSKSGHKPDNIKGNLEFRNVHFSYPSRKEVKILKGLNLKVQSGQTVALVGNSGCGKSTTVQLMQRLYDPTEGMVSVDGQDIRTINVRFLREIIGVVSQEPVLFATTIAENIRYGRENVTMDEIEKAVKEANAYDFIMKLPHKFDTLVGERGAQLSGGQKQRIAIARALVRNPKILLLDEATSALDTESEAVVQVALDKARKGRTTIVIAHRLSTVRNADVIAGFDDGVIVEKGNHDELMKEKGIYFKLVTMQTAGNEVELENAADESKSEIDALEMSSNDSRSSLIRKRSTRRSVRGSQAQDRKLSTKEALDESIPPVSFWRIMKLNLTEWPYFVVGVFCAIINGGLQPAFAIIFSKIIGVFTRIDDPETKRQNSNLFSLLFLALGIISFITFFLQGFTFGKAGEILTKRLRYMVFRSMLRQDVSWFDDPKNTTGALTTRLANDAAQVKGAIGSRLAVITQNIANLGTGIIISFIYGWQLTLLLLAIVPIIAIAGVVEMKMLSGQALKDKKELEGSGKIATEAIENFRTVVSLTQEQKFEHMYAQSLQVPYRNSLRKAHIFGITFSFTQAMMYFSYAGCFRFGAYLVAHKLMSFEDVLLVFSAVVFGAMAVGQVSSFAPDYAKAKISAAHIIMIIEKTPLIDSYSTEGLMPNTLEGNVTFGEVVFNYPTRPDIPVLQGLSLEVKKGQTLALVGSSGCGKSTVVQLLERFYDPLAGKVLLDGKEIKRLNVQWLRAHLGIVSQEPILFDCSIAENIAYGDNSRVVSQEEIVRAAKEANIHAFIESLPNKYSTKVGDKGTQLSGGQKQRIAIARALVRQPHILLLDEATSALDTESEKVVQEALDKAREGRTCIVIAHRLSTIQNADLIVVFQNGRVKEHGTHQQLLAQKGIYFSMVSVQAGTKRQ

In the case of GARLIC, the Activity is reported as “substrate [+]”.
